From patent publication US11883407B2, “Medicament for the treatment of chronic cough” (Shionogi & Co., Ltd., priority 2018, dated 2024)

Target: T1, human P2X2/3 receptor (Homo sapiens, UniProt P56373+Q9UBL9)
T1 sequence (Q9UBL9 1-471): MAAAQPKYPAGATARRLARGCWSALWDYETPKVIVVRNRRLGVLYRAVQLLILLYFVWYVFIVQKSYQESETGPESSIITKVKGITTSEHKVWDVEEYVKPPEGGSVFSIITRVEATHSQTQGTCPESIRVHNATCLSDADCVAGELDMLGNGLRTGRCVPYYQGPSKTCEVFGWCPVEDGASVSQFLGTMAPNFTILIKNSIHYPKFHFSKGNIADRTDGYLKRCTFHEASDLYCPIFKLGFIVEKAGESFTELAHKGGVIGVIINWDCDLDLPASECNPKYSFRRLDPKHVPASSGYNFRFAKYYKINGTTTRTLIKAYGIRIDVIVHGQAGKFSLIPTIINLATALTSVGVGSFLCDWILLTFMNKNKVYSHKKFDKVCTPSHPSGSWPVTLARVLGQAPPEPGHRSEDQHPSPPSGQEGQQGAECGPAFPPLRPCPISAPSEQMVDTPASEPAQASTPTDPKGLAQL
T1 sequence (P56373 1-397): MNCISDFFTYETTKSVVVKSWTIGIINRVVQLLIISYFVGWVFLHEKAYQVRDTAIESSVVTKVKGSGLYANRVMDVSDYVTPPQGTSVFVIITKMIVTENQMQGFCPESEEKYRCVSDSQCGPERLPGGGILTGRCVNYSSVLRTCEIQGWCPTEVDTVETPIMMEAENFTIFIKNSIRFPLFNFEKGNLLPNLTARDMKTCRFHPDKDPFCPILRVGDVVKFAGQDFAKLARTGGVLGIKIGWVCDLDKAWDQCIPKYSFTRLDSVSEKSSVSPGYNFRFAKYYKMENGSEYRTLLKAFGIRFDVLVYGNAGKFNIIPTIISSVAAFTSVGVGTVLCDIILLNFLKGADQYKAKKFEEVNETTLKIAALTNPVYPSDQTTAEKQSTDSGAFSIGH
Experiment: Evaluation of human P2X2/3 receptor inhibitory activity (Fluo-3 fluorescence, C6BU-1 cells, α,β-methylene ATP 6 μM)

Question: Which IC50 does the source give for C[C@@H](Cn1c(=O)[nH]/c(=N\c2ccc(Oc3ccccn3)cc2)n(Cc2ccc(Cl)cc2)c1=O)C(=O)O [compound represented by Formula (I), (2S)-3-(3-[(4-Chlorophenyl)methyl]-2,6-dioxo-4-{[4-(pyridin-2-yloxy)phenyl]amino}-3,6-dihydro-1,3,5-triazin-1(2H)-yl)-2-methyl-propanoic acid] here?
Answer: 1.1 µM
